Reference: PubChem BioAssay (NCI)
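All cell lines were grown in 96-well plates and treated with compound for 48 hours. Abbreviation: GI50, concentration required for 50% inhibition of growth. TGI marks complete inhibition of growth.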

Legend:
Test in all cases: growth of human tumour cells (NCI), 48 h
[1] = tested on: K-562 leukemia
[2] = tested on: SW-620 colon
[3] = tested on: BT-549 breast
[4] = tested on: SR leukemia
[5] = tested on: OVCAR-8 ovarian
[6] = tested on: OVCAR-5 ovarian
[7] = tested on: UACC-62 melanoma
[8] = tested on: A549 NSCLC
[9] = tested on: NCI-H226 lung
[10] = tested on: HT29 colon
[11] = tested on: NCI-H23 lung
[12] = tested on: UO-31 renal
[13] = tested on: CAKI-1 renal
[14] = tested on: NCI-H460 lung
[15] = tested on: DU-145 prostate
[16] = tested on: NCI/ADR-RES ovarian
[17] = tested on: SN12C renal
[18] = tested on: HS 578T breast
[19] = tested on: NCI-H522 lung
[20] = tested on: SNB-19 CNS
[21] = tested on: UACC-257 melanoma
[22] = tested on: LOX IMVI melanoma
[23] = tested on: SK-MEL-5 melanoma
[24] = tested on: CCRF-CEM leukemia
[25] = tested on: MDA-MB-231 breast
[26] = tested on: COLO 205 colon
[27] = tested on: SK-MEL-28 melanoma
[28] = tested on: HCT-15 colon
[29] = tested on: SF-268 CNS
[30] = tested on: OVCAR-4 ovarian
[31] = tested on: 786-0 renal
[32] = tested on: T-47D breast
[33] = tested on: U251 CNS
[34] = tested on: RXF 393 renal
[35] = tested on: KM12 colon
[36] = tested on: A498 renal
[37] = tested on: MDA-MB-435
[38] = tested on: MCF7 breast
[39] = tested on: EKVX NSCLC
[40] = tested on: HL-60(TB) leukemia
[41] = tested on: RPMI-8226 leukemia
[42] = tested on: PC-3 prostate
[43] = tested on: SK-OV-3 ovarian
[44] = tested on: HCT-116 colon
[45] = tested on: ACHN renal
[46] = tested on: SK-MEL-2 melanoma
[47] = tested on: SF-295 CNS
[48] = tested on: TK-10 renal
[49] = tested on: SF-539 CNS
[50] = tested on: HCC-2998 colon
[51] = tested on: IGROV1 ovarian
[52] = tested on: HOP-62 NSCLC
[53] = tested on: HOP-92 NSCLC
[54] = tested on: M14 melanoma
[55] = tested on: MOLT-4 leukemia

COc1ccc(C(=O)c2c(N)c(C#N)cn2-c2cccc(OC)c2)cc1 showed a GI50 [1] of 0.707 µM, a TGI [1] of 8.57 µM and a GI50 [2] of 2.85 µM. The TGI [2] was greater than 100 µM, the GI50 [3] was 4.41 µM and the TGI [3] was greater than 100 µM. The GI50 [4] was 0.775 µM, the TGI [4] was 14.4 µM and the GI50 [5] was 5.3 µM. The TGI [5] was greater than 100 µM, the GI50 [6] was 7.36 µM and the TGI [6] was greater than 100 µM. For the same compound, the GI50 [7] was 3.22 µM, the TGI [7] was greater than 100 µM and the GI50 [8] was 5.84 µM. The TGI [8] was greater than 100 µM, the GI50 [9] was 4.5 µM and the TGI [9] was greater than 100 µM. It also gave a GI50 [10] of 2.64 µM, a TGI [10] of 20.2 µM and a GI50 [11] of 5.61 µM. The TGI [11] was greater than 100 µM, the GI50 [12] was 5.42 µM and the TGI [12] was greater than 100 µM. For the same compound, the GI50 [13] was 3.2 µM, the TGI [13] was greater than 100 µM and the GI50 [14] was 3.41 µM. The TGI [14] was greater than 100 µM, the GI50 [15] was 4.7 µM and the TGI [15] was greater than 100 µM. The GI50 [16] was 2.35 µM, the TGI [16] was greater than 100 µM and the GI50 [17] was 5.64 µM. The TGI [17] was greater than 100 µM, the GI50 [18] was 2.42 µM and the TGI [18] was 8.66 µM. For the same compound, the GI50 [19] was 1.99 µM, the TGI [19] was 7.51 µM and the GI50 [20] was 3.92 µM. It also gave a TGI [20] greater than 100 µM, a GI50 [21] of 9.48 µM and a TGI [21] greater than 100 µM. For the same compound, the GI50 [22] was 4.6 µM, the TGI [22] was greater than 100 µM and the GI50 [23] was 3.19 µM. It also gave a TGI [23] of 23.2 µM, a GI50 [24] of 2.68 µM and a TGI [24] of 9.83 µM. For the same compound, the GI50 [25] was 7.8 µM, the TGI [25] was greater than 100 µM and the GI50 [26] was 3.01 µM. The TGI [26] was 23 µM, the GI50 [27] was 49.8 µM and the TGI [27] was greater than 100 µM. It also gave a GI50 [28] of 2.49 µM, a TGI [28] greater than 100 µM and a GI50 [29] of 5.65 µM. The TGI [29] was greater than 100 µM, the GI50 [30] was 18 µM and the TGI [30] was greater than 100 µM. For the same compound, the GI50 [31] was 4.64 µM, the TGI [31] was greater than 100 µM and the GI50 [32] was 3.72 µM. For the same compound, the TGI [32] was greater than 100 µM, the GI50 [33] was 3.45 µM and the TGI [33] was greater than 100 µM. It also gave a GI50 [34] of 2.05 µM, a TGI [34] of 6.1 µM and a GI50 [35] of 4.17 µM. The TGI [35] was greater than 100 µM, the GI50 [36] was 2.73 µM and the TGI [36] was 7.8 µM. The GI50 [37] was 0.788 µM, the TGI [37] was 4.49 µM and the GI50 [38] was 3.07 µM. The TGI [38] was greater than 100 µM, the GI50 [39] was 4.68 µM and the TGI [39] was greater than 100 µM. The GI50 [40] was 2.01 µM, the TGI [40] was 4.91 µM and the GI50 [41] was 2.94 µM. The TGI [41] was 15.7 µM, the GI50 [42] was 3.75 µM and the TGI [42] was greater than 100 µM. It also gave a GI50 [43] of 4.09 µM, a TGI [43] greater than 100 µM and a GI50 [44] of 3.5 µM. It also gave a TGI [44] greater than 100 µM, a GI50 [45] of 6.52 µM and a TGI [45] greater than 100 µM. For the same compound, the GI50 [46] was 4.58 µM, the TGI [46] was greater than 100 µM and the GI50 [47] was 2.9 µM. It also gave a TGI [47] greater than 100 µM, a GI50 [48] of 6.14 µM and a TGI [48] greater than 100 µM. For the same compound, the GI50 [49] was 2.41 µM, the TGI [49] was 8.52 µM and the GI50 [50] was 4.98 µM. For the same compound, the TGI [50] was 97.4 µM, the GI50 [51] was 5 µM and the TGI [51] was greater than 100 µM. It also gave a GI50 [52] of 4.12 µM, a TGI [52] greater than 100 µM and a GI50 [53] of 9.53 µM. It also gave a TGI [53] greater than 100 µM, a GI50 [54] of 2.51 µM and a TGI [54] greater than 100 µM. It also gave a GI50 [55] of 3.65 µM and a TGI [55] of 17.9 µM.
